Assay results from patent publication US10800791B2, “Triazole ACC inhibitors and uses thereof” (Gilead Apollo, LLC, priority 2015, dated 2020).
In brackets after ≈: the same amount, converted by molar mass. Like-named read-outs stand apart in the source and are kept apart here.

Tests used:
human (hACC2) = human (hACC2) (Homo sapiens, UniProt O00763); assay: In vitro ACC inhibition assay (ADP-Glo), hACC2; format: biochemical; conditions: 5 nM ACC2, 20 μM ATP, 20 μM acetyl-CoA
Procedure: The detailed procedure is as follows. […] 10 μL ADP glo reagent was added. […] 20 μL kinase detection reagent was added.

C. albicans = assay: Antifungal Activity Assay (broth microtiter MIC), C. albicans; format: cell-based, Candida albicans; conditions: Candida albicans, ATCC90028, 48 h
Summary of the method: (§1)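 Susceptibility was determined by CLSI M27-A3 broth microdilution in RPMI 1640 buffered with MOPS. Growth inhibition was scored visually after 48 h.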

C. krusei = assay: Antifungal Activity Assay (broth microtiter MIC), C. krusei; format: cell-based, Candida krusei; conditions: Pichia kudriavzevii, ATCC6258, 48 h
Summary of the method: as §1

C. parapsilosis = assay: Antifungal Activity Assay (broth microtiter MIC), C. parapsilosis; format: cell-based, Candida parapsilosis; conditions: Lodderomyces parapsilosis, ATCC22019, 48 h
Summary of the method: as §1

Botrtyis cinerea (Bc) = assay: Growth inhibition assay of fungal pathogens, Bc; format: cell-based; conditions: 48 h, growth inhibition at 48 hours vs 2% DMSO control
Summary of the method: (§2)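 Read-out: OD600 plus visual rating at 24 and 48 h, blank (media + 2% DMSO) subtracted. Percent inhibition was derived at 48 h versus the 2% DMSO control. Spores were grown in 17% V8 broth with compound at 50/10/2 or 2/0.4/0.08 ppm final.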

[1] = tested on: Collectotrichum graminicola (Cg); assay: Growth inhibition assay of fungal pathogens, Cg; format: cell-based; conditions: 48 h, growth inhibition at 48 hours vs 2% DMSO control
Summary of the method: as §2

Diplodia maydis (Dm) = assay: Growth inhibition assay of fungal pathogens, Dm; format: cell-based; conditions: Stenocarpella maydis, 48 h, growth inhibition at 48 hours vs 2% DMSO control
Summary of the method: as §2

[2] = tested on: Fusarium moniliforme (Fm); assay: Growth inhibition assay of fungal pathogens, Fm; format: cell-based; conditions: Fusarium verticillioides, 48 h, read-out: Concentration at 90% Inhibition Fm
Summary of the method: as §2

[3] = tested on: Fusarium virguliforme (Fv); assay: Growth inhibition assay of fungal pathogens, Fv; format: cell-based; conditions: 48 h
Summary of the method: as §2

[4] = tested on: Phytophthora capsici (Pc); assay: Growth inhibition assay of fungal pathogens, Pc; format: cell-based; conditions: 48 h
Summary of the method: as §2

Rhizoctonia solani (Rs) = assay: Growth inhibition assay of fungal pathogens, Rs; format: cell-based; conditions: 48 h
Septoria tritici (St) = assay: Growth inhibition assay of fungal pathogens, St; format: cell-based; conditions: Zymoseptoria tritici, 48 h, growth inhibition at 48 hours vs 2% DMSO control
Summary of the method: as §2

fungal (fACC2) = fungal (fACC2) (UniProt Q00955); conditions: read-out: fACC2 (in vitro ACC2 Inhibition Assay, IC50), ADP-Glo, 5 nM ACC2, 20 μM ATP, 20 μM acetyl-CoA
[5] = Table 3a, ATCC 90028, 3 replicates, MIC recorded at 48 h, read-out: MIC, C. albicans ATCC 90028
[6] = Table 3b (additional results), ATCC 90028, 3 replicates, MIC recorded at 48 h, read-out: MIC, C. albicans ATCC 90028
[7] = Table 3a, ATCC 6258, 3 replicates, MIC recorded at 48 h, read-out: MIC, C. krusei ATCC 6258
[8] = Table 3b (additional results), ATCC 6258, 3 replicates, MIC recorded at 48 h, read-out: MIC, C. krusei ATCC 6258
[9] = Table 3a, ATCC 22019, 3 replicates, MIC recorded at 48 h, read-out: MIC, C. parapsilosis ATCC 22019
[10] = Table 3b (additional results), ATCC 22019, 3 replicates, MIC recorded at 48 h, read-out: MIC, C. parapsilosis ATCC 22019
[11] = Botrtyis cinerea, read-out: Concentration at 90% Inhibition Bc
[12] = Collectotrichum graminicola, read-out: Concentration at 90% Inhibition Cg
[13] = Diplodia maydis, read-out: Concentration at 90% Inhibition Dm
[14] = Fusarium moniliforme, growth inhibition at 48 hours vs 2% DMSO control
[15] = growth inhibition at 48 hours vs 2% DMSO control, read-out: Concentration at 90% Inhibition Fv
[16] = growth inhibition at 48 hours vs 2% DMSO control, read-out: Concentration at 90% Inhibition Pc
[17] = mycelial plugs, growth inhibition at 48 hours vs 2% DMSO control, read-out: Concentration at 90% Inhibition Rs
[18] = Septoria tritici, read-out: Concentration at 90% Inhibition St

Chain of human (hACC2) (O00763 whole entry): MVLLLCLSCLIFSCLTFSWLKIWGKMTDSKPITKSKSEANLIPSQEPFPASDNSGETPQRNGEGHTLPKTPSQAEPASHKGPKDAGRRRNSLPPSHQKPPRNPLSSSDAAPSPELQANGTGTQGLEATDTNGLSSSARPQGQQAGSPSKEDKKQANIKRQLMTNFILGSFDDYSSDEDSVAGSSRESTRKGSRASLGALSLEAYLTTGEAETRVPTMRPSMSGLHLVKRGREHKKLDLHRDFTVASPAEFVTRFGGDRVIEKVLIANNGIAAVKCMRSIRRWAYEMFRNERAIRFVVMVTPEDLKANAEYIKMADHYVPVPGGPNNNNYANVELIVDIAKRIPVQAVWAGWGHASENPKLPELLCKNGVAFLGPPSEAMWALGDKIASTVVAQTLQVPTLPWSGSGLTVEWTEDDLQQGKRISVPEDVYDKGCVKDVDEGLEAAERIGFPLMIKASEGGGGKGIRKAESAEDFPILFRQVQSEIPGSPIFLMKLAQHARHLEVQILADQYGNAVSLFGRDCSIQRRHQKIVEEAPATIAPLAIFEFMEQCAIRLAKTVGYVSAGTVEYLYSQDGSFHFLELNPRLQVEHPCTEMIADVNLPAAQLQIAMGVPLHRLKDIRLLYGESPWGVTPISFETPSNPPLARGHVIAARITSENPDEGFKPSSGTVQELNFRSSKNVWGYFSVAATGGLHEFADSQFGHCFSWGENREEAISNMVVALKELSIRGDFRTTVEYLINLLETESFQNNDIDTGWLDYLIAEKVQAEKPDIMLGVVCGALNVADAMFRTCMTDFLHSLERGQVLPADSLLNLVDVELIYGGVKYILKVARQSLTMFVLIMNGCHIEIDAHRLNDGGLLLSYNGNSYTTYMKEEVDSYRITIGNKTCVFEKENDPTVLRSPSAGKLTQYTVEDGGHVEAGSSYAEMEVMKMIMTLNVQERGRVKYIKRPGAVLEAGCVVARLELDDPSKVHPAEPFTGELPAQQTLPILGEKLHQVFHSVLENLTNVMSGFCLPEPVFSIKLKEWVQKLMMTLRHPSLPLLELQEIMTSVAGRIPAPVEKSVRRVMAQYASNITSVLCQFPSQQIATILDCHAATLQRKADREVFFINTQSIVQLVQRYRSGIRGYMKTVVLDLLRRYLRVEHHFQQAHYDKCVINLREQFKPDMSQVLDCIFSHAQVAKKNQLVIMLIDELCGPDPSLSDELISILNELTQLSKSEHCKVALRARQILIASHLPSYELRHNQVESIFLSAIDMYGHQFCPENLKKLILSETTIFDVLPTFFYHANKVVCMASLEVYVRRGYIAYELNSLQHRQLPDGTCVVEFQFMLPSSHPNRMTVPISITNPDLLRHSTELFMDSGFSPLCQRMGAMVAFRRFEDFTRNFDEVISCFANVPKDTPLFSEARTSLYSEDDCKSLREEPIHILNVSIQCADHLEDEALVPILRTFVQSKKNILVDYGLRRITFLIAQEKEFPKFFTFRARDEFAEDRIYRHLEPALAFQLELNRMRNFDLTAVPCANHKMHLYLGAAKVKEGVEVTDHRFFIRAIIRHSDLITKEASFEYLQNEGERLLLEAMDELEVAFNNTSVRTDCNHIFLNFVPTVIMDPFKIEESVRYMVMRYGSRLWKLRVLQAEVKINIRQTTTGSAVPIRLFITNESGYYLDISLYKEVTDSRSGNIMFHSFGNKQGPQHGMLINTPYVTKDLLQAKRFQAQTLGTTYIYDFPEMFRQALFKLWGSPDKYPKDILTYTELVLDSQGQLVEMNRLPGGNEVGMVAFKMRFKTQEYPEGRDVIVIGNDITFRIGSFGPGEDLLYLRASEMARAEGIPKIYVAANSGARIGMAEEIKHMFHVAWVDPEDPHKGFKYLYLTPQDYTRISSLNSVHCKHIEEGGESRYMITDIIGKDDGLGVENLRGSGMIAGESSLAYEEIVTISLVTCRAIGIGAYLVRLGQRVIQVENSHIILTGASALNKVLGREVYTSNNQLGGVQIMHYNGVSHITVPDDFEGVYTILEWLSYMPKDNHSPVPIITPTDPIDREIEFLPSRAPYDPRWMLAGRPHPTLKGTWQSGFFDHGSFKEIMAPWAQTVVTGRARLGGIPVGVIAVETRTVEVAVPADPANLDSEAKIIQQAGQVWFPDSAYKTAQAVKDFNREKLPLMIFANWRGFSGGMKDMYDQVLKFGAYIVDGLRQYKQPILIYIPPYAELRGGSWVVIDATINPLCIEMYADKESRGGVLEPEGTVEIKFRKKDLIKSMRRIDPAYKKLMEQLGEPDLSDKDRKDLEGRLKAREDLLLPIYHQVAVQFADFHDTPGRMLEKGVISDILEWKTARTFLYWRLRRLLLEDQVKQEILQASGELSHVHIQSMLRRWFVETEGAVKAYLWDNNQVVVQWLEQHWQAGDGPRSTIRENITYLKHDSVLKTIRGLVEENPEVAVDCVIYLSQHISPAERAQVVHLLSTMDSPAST
Chain of fungal (fACC2) (Q00955 whole entry): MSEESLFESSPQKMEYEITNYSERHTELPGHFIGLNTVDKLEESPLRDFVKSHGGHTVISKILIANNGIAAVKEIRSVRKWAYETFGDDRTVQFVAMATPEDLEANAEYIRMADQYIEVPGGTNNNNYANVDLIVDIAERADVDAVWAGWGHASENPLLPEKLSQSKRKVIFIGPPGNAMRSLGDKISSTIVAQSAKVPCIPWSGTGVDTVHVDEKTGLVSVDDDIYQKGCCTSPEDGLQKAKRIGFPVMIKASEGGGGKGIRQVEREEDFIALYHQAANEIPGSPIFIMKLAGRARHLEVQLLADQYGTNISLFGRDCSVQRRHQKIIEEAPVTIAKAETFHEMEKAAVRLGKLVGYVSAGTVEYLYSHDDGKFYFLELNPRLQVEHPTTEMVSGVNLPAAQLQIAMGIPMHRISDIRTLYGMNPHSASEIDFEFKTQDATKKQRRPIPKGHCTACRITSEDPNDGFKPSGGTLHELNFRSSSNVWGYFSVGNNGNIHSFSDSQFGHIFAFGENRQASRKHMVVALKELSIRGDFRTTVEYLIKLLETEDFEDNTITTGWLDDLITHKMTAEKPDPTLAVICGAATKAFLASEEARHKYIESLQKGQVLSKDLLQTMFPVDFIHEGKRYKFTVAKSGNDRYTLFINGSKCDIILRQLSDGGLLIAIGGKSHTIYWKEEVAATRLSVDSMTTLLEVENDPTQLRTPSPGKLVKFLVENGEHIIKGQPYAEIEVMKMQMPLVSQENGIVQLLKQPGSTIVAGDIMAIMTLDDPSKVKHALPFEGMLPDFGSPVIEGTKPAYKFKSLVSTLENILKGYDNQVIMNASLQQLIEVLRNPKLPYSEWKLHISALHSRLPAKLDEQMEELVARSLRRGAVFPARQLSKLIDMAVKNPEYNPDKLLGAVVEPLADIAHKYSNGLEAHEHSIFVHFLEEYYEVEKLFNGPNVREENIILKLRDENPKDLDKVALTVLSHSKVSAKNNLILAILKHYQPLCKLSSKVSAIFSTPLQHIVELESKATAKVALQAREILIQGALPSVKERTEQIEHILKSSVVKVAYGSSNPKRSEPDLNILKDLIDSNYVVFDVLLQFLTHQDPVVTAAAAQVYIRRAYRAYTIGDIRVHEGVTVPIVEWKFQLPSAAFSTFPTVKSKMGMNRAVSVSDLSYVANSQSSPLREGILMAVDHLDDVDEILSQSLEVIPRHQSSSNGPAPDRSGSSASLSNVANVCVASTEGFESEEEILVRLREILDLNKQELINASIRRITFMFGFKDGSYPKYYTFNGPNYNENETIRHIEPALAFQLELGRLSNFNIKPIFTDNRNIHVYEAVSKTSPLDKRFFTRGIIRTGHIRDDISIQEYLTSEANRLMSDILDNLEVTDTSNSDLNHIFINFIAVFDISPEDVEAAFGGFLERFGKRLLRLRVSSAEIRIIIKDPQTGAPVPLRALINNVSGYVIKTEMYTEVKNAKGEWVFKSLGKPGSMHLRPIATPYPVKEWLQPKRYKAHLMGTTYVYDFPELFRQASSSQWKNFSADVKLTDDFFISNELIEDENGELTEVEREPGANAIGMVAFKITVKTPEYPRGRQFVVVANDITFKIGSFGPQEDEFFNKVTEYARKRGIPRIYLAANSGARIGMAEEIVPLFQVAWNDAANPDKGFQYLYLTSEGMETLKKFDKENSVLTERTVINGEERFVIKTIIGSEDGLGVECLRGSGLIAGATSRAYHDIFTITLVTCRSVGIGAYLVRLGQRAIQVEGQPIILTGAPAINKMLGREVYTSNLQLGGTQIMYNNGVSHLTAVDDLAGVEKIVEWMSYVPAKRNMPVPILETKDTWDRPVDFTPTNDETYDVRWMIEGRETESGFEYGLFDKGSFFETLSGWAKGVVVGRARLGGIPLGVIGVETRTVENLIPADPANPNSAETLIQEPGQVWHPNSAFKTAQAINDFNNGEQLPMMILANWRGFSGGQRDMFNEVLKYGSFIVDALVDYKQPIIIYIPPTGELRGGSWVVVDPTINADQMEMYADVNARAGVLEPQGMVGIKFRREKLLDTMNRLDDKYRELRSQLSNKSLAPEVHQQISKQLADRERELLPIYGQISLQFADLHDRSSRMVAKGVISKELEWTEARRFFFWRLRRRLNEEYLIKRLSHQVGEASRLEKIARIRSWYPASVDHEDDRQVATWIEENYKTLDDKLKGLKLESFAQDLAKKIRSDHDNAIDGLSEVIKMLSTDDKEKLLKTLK

Row | SMILES | IC50 (human (hACC2); Table 2a) [nM] | IC50 (human (hACC2); Table 2b, additional results) [nM] | IC50 (fungal (fACC2); Table 2a) [nM] | IC50 (fungal (fACC2); Table 2b, additional results) [nM] | MIC (C. albicans; [5]) [µg/mL] | MIC (C. albicans; [6]) [µg/mL] | MIC (C. krusei; [7]) [µg/mL] | MIC (C. krusei; [8]) [µg/mL] | MIC (C. parapsilosis; [9]) [µg/mL] | MIC (C. parapsilosis; [10]) [µg/mL] | IC90 (Botrtyis cinerea (Bc); [11]) [µg/mL] | IC90 [1, 12] [µg/mL] | IC90 (Diplodia maydis (Dm); [13]) [µg/mL] | IC90 [2, 14] [µg/mL] | IC90 [3, 15] [µg/mL] | IC90 [4, 16] [µg/mL] | IC90 (Rhizoctonia solani (Rs); [17]) [µg/mL] | IC90 (Septoria tritici (St); [18]) [µg/mL] | further results
1 | COc1ccc(F)cc1[C@H](Cn1c(=O)n([C@H](C)C(=O)NC(C)C)c(=O)c2c(C)c(-n3nccn3)sc21)OCCC#N [Compound I-138] | 1 to 5 | 1 to 5 | 1 to 5 | 0.3 to 1 | – | – | – | – | – | – | – | – | – | – | – | – | – | – | MIC (C. albicans; read-out: MIC, C. albicans ATCC 90028, Table 3a, 3 replicates, MIC recorded at 48 h): 0.25 to 1 µg/mL (≈ 0.428 to 1.71 µM); MIC (C. albicans; read-out: MIC, C. albicans ATCC 90028, Table 3b (additional results), 3 replicates, MIC recorded at 48 h): > 4.01 µg/mL; MIC (C. krusei; read-out: MIC, C. krusei ATCC 6258, Table 3a, 3 replicates, MIC recorded at 48 h): 0.25 to 1 µg/mL (≈ 0.428 to 1.71 µM); MIC (C. krusei; read-out: MIC, C. krusei ATCC 6258, Table 3b (additional results), 3 replicates, MIC recorded at 48 h): 2.01 to 4 µg/mL (≈ 3.44 to 6.85 µM); MIC (C. parapsilosis; read-out: MIC, C. parapsilosis ATCC 22019, Table 3a, 3 replicates, MIC recorded at 48 h): 0.25 to 1 µg/mL (≈ 0.428 to 1.71 µM); MIC (C. parapsilosis; read-out: MIC, C. parapsilosis ATCC 22019, Table 3b (additional results), 3 replicates, MIC recorded at 48 h): 1.01 to 2 µg/mL (≈ 1.73 to 3.43 µM); IC90 (Botrtyis cinerea (Bc); read-out: Concentration at 90% Inhibition Bc, Botrtyis cinerea): 0.4 µg/mL (≈ 0.685 µM); IC90 ([1]; read-out: Concentration at 90% Inhibition Cg, Collectotrichum graminicola): 0.08 µg/mL (≈ 0.137 µM); IC90 (Diplodia maydis (Dm); read-out: Concentration at 90% Inhibition Dm, Diplodia maydis): 0.08 µg/mL (≈ 0.137 µM); IC90 [2]: 0.08 µg/mL (≈ 0.137 µM); IC90 ([3]; read-out: Concentration at 90% Inhibition Fv, Fusarium virguliforme, growth inhibition at 48 hours vs 2% DMSO control): 0.4 µg/mL (≈ 0.685 µM); IC90 ([4]; read-out: Concentration at 90% Inhibition Pc, Phytophthora capsici, growth inhibition at 48 hours vs 2% DMSO control): 2 µg/mL (≈ 3.43 µM); IC90 (Rhizoctonia solani (Rs); read-out: Concentration at 90% Inhibition Rs, Rhizoctonia solani, mycelial plugs, growth inhibition at 48 hours vs 2% DMSO control): 0.08 µg/mL (≈ 0.137 µM); IC90 (Septoria tritici (St); read-out: Concentration at 90% Inhibition St, Septoria tritici): 2 µg/mL (≈ 3.43 µM)
2 | COc1ccc(F)cc1[C@H](Cn1c(=O)n([C@H](C)C(=O)N(C)C(C)C)c(=O)c2c(C)c(-n3nccn3)sc21)OCCC#N [Compound I-139] | 5 to 10 | 1 to 5 | 5 to 10 | 1 to 5 | 0.25 to 1 (≈ 0.418 to 1.67 µM) | 2.01 to 4 (≈ 3.36 to 6.69 µM) | 0.25 to 1 (≈ 0.418 to 1.67 µM) | 2.01 to 4 (≈ 3.36 to 6.69 µM) | 1.1 to 2 (≈ 1.84 to 3.35 µM) | 2.01 to 4 (≈ 3.36 to 6.69 µM) | 0.4 (≈ 0.669 µM) | 0.4 (≈ 0.669 µM) | 0.08 (≈ 0.134 µM) | 0.4 (≈ 0.669 µM) | 0.4 (≈ 0.669 µM) | > 50 | 0.08 (≈ 0.134 µM) | > 50 | –
3 | CCNC(=O)C(C)(C)n1c(=O)c2c(C)c(-n3nccn3)sc2n(C[C@H](OCCC#N)c2cc(F)ccc2OC)c1=O [Compound I-140] | 5 to 10 | 5 to 10 | 1 to 5 | 1 to 5 | 1.1 to 2 (≈ 1.88 to 3.43 µM) | 2.01 to 4 (≈ 3.44 to 6.85 µM) | 0.25 to 1 (≈ 0.428 to 1.71 µM) | 2.01 to 4 (≈ 3.44 to 6.85 µM) | 2.1 to 4 (≈ 3.6 to 6.85 µM) | 1.01 to 2 (≈ 1.73 to 3.43 µM) | 0.4 (≈ 0.685 µM) | 0.4 (≈ 0.685 µM) | 0.4 (≈ 0.685 µM) | 0.08 (≈ 0.137 µM) | 0.4 (≈ 0.685 µM) | > 50 | 0.08 (≈ 0.137 µM) | > 50 | –
4 | CNC(=O)C(C)(C)n1c(=O)c2c(C)c(-n3nccn3)sc2n(C[C@H](OCCC#N)c2cc(F)ccc2OC)c1=O [Compound I-141] | 5 to 10 | 5 to 10 | 1 to 5 | 1 to 5 | 2.1 to 4 (≈ 3.69 to 7.02 µM) | > 4.01 | 2.1 to 4 (≈ 3.69 to 7.02 µM) | 2.01 to 4 (≈ 3.53 to 7.02 µM) | 2.1 to 4 (≈ 3.69 to 7.02 µM) | 2.01 to 4 (≈ 3.53 to 7.02 µM) | 2 (≈ 3.51 µM) | 10 (≈ 17.6 µM) | 2 (≈ 3.51 µM) | 0.08 (≈ 0.14 µM) | 2 (≈ 3.51 µM) | > 50 | 0.08 (≈ 0.14 µM) | > 50 | –
5 | CCNC(=O)C(C)(C)n1c(=O)c2c(C)c(-n3nccn3)sc2n(C[C@H](OCCC#N)c2ccccc2OC)c1=O [Compound I-142] | 1 to 5 | 1 to 5 | 1 to 5 | 1 to 5 | 2.1 to 4 (≈ 3.71 to 7.07 µM) | 2.01 to 4 (≈ 3.55 to 7.07 µM) | 1.1 to 2 (≈ 1.94 to 3.54 µM) | 2.01 to 4 (≈ 3.55 to 7.07 µM) | 2.1 to 4 (≈ 3.71 to 7.07 µM) | 1.01 to 2 (≈ 1.79 to 3.54 µM) | 0.4 (≈ 0.707 µM) | 2 (≈ 3.54 µM) | 2 (≈ 3.54 µM) | 0.4 (≈ 0.707 µM) | 0.4 (≈ 0.707 µM) | > 50 | 0.08 (≈ 0.141 µM) | > 50 | –
6 | CNC(=O)C(C)(C)n1c(=O)c2c(C)c(-n3nccn3)sc2n(C[C@H](OCCC#N)c2ccccc2OC)c1=O [Compound I-143] | 5 to 10 | 5 to 10 | 1 to 5 | 1 to 5 | 2.1 to 4 (≈ 3.81 to 7.25 µM) | 2.01 to 4 (≈ 3.64 to 7.25 µM) | 2.1 to 4 (≈ 3.81 to 7.25 µM) | 2.01 to 4 (≈ 3.64 to 7.25 µM) | 2.1 to 4 (≈ 3.81 to 7.25 µM) | 1.01 to 2 (≈ 1.83 to 3.63 µM) | 2 (≈ 3.63 µM) | > 50 | 10 (≈ 18.1 µM) | 0.08 (≈ 0.145 µM) | 10 (≈ 18.1 µM) | > 50 | 0.08 (≈ 0.145 µM) | > 50 | –
